In patent publication US9580444B2, “Polycyclic pyrazolinone derivative and herbicide comprising same as effective component thereof” (priority 2013, dated 2017):

Experiments:
Test in all cases: Test Example-1: herbicidal effect by a treatment before weeds are generated under submerged conditions
Assay type in all cases: in vivo
Details in all cases: 500 g a.i/ha, pre-emergence treatment, about 15 days after treatment, score 0-5
[1] = tested on: Cyperus difformis (smallflower umbrella plant)
Summary of the method: (§1)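 Treatment is made before weed emergence: seeds sit in puddled, submerged paddy soil and receive the diluted wettable powder or emulsifiable concentrate into the water at a fixed dosage. Rating on a 0–5 scale follows after around 15 days.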

[2] = tested on: Echinochloa oryzicola (barnyard grass)
Summary of the method: as §1

[3] = tested on: Scirpus juncoides (bulrush)
Summary of the method: as §1

[4] = tested on: Monochoria vaginalis (monochoria)
Summary of the method: as §1

[5] = tested on: Eleocharis acicularis (needle spikerush)
Summary of the method: as §1

[6] = tested on: other annual broad leaf weeds (Lindernia procumbens, Rotala indica, Elatine triandra)
Summary of the method: as §1

| Compound | Herbicidal effect Cyperus difformis [1] | Herbicidal effect Echinochloa oryzicola [2] | Herbicidal effect Scirpus juncoides [3] | Herbicidal effect Monochoria vaginalis [4] | Herbicidal effect Eleocharis acicularis [5] | Herbicidal effect Broadleaf weed [6] |
| --- | --- | --- | --- | --- | --- | --- |
| COC(=O)C(C)Oc1cc(-c2c(Cl)n3n(c2=O)CCCC3)c(F)cc1Cl (stereo not drawn) [Example 1-166] | 5 (Herbicidal effect/phytotoxicity was 90% or greater) | 5 (Herbicidal effect/phytotoxicity was 90% or greater) | 5 (Herbicidal effect/phytotoxicity was 90% or greater) | 5 (Herbicidal effect/phytotoxicity was 90% or greater) | 5 (Herbicidal effect/phytotoxicity was 90% or greater) | 5 (Herbicidal effect/phytotoxicity was 90% or greater) |
| O=c1c(-c2cc(OCC3CCCC3)c(Cl)cc2F)c(Cl)n2n1CCCC2 [Example 1-186] | 5 (Herbicidal effect/phytotoxicity was 90% or greater) | 5 (Herbicidal effect/phytotoxicity was 90% or greater) | 5 (Herbicidal effect/phytotoxicity was 90% or greater) | 5 (Herbicidal effect/phytotoxicity was 90% or greater) | 5 (Herbicidal effect/phytotoxicity was 90% or greater) | 5 (Herbicidal effect/phytotoxicity was 90% or greater) |
| C=CC(F)(F)Oc1cc(-c2c(Cl)n3n(c2=O)CCCC3)c(F)cc1Cl [Example 1-206] | 5 (Herbicidal effect/phytotoxicity was 90% or greater) | 5 (Herbicidal effect/phytotoxicity was 90% or greater) | 5 (Herbicidal effect/phytotoxicity was 90% or greater) | 5 (Herbicidal effect/phytotoxicity was 90% or greater) | 5 (Herbicidal effect/phytotoxicity was 90% or greater) | 5 (Herbicidal effect/phytotoxicity was 90% or greater) |
| O=c1c(-c2cc(OC3C=CCCC3)c(Cl)cc2F)c(Cl)n2n1CCCC2 (stereo not drawn) [Example 1-232] | 5 (Herbicidal effect/phytotoxicity was 90% or greater) | 5 (Herbicidal effect/phytotoxicity was 90% or greater) | 5 (Herbicidal effect/phytotoxicity was 90% or greater) | 5 (Herbicidal effect/phytotoxicity was 90% or greater) | 5 (Herbicidal effect/phytotoxicity was 90% or greater) | 5 (Herbicidal effect/phytotoxicity was 90% or greater) |
| O=c1c(-c2cc(Oc3c(F)cc(C(F)(F)F)cc3Cl)c(Cl)cc2F)c(Cl)n2n1CCCC2 [Example 1-254] | 5 (Herbicidal effect/phytotoxicity was 90% or greater) | 5 (Herbicidal effect/phytotoxicity was 90% or greater) | 5 (Herbicidal effect/phytotoxicity was 90% or greater) | 5 (Herbicidal effect/phytotoxicity was 90% or greater) | 5 (Herbicidal effect/phytotoxicity was 90% or greater) | 5 (Herbicidal effect/phytotoxicity was 90% or greater) |
| COC(=O)C(Cl)Cc1cc(-c2c(Cl)n3n(c2=O)CCCC3)c(F)cc1Cl (stereo not drawn) [Example 1-257] | 5 (Herbicidal effect/phytotoxicity was 90% or greater) | 5 (Herbicidal effect/phytotoxicity was 90% or greater) | 5 (Herbicidal effect/phytotoxicity was 90% or greater) | 5 (Herbicidal effect/phytotoxicity was 90% or greater) | 5 (Herbicidal effect/phytotoxicity was 90% or greater) | 5 (Herbicidal effect/phytotoxicity was 90% or greater) |
| CCOC(=O)C(Cl)Cc1cc(-c2c(Cl)n3n(c2=O)CCCC3)c(F)cc1Cl (stereo not drawn) [Example 1-260] | 5 (Herbicidal effect/phytotoxicity was 90% or greater) | 5 (Herbicidal effect/phytotoxicity was 90% or greater) | 5 (Herbicidal effect/phytotoxicity was 90% or greater) | 5 (Herbicidal effect/phytotoxicity was 90% or greater) | 5 (Herbicidal effect/phytotoxicity was 90% or greater) | 5 (Herbicidal effect/phytotoxicity was 90% or greater) |
| O=c1c(-c2ccc(Cl)cc2Cl)c(Cl)n2n1CCCC2 [Example 1-280] | 5 (Herbicidal effect/phytotoxicity was 90% or greater) | 5 (Herbicidal effect/phytotoxicity was 90% or greater) | 5 (Herbicidal effect/phytotoxicity was 90% or greater) | 5 (Herbicidal effect/phytotoxicity was 90% or greater) | 5 (Herbicidal effect/phytotoxicity was 90% or greater) | 5 (Herbicidal effect/phytotoxicity was 90% or greater) |
| COc1cc(-c2c(Cl)n3n(c2=O)CCCCC3)c(Cl)cc1Cl [Example 1-293] | 5 (Herbicidal effect/phytotoxicity was 90% or greater) | 5 (Herbicidal effect/phytotoxicity was 90% or greater) | 5 (Herbicidal effect/phytotoxicity was 90% or greater) | 5 (Herbicidal effect/phytotoxicity was 90% or greater) | 5 (Herbicidal effect/phytotoxicity was 90% or greater) | 5 (Herbicidal effect/phytotoxicity was 90% or greater) |
| O=c1c(-c2cc(Oc3c(F)cc(C(F)(F)F)cc3Cl)c(F)cc2F)c(Cl)n2n1CCCC2 [Example 1-340] | 5 (Herbicidal effect/phytotoxicity was 90% or greater) | 5 (Herbicidal effect/phytotoxicity was 90% or greater) | 5 (Herbicidal effect/phytotoxicity was 90% or greater) | 5 (Herbicidal effect/phytotoxicity was 90% or greater) | 5 (Herbicidal effect/phytotoxicity was 90% or greater) | 5 (Herbicidal effect/phytotoxicity was 90% or greater) |
| COc1cc(-c2c(F)n3n(c2=O)CCCC3)c(Cl)cc1Cl [Example 1-356] | 5 (Herbicidal effect/phytotoxicity was 90% or greater) | 5 (Herbicidal effect/phytotoxicity was 90% or greater) | 5 (Herbicidal effect/phytotoxicity was 90% or greater) | 5 (Herbicidal effect/phytotoxicity was 90% or greater) | 5 (Herbicidal effect/phytotoxicity was 90% or greater) | 5 (Herbicidal effect/phytotoxicity was 90% or greater) |
| C#CCOc1cc(-c2c(F)n3n(c2=O)CCCCC3)c(Cl)cc1Cl [Example 1-361] | 5 (Herbicidal effect/phytotoxicity was 90% or greater) | 5 (Herbicidal effect/phytotoxicity was 90% or greater) | 5 (Herbicidal effect/phytotoxicity was 90% or greater) | 5 (Herbicidal effect/phytotoxicity was 90% or greater) | 5 (Herbicidal effect/phytotoxicity was 90% or greater) | 5 (Herbicidal effect/phytotoxicity was 90% or greater) |
| O=c1c(-c2cc(Oc3cccnc3[N+](=O)[O-])c(Cl)cc2F)c(Cl)n2n1CCCC2 [Example 1-386] | 5 (Herbicidal effect/phytotoxicity was 90% or greater) | 5 (Herbicidal effect/phytotoxicity was 90% or greater) | 5 (Herbicidal effect/phytotoxicity was 90% or greater) | 5 (Herbicidal effect/phytotoxicity was 90% or greater) | 5 (Herbicidal effect/phytotoxicity was 90% or greater) | 5 (Herbicidal effect/phytotoxicity was 90% or greater) |
| C#CCN(C)c1cc(-c2c(Cl)n3n(c2=O)CCCC3)c(F)cc1Cl [Example 5-68] | 5 (Herbicidal effect/phytotoxicity was 90% or greater) | 5 (Herbicidal effect/phytotoxicity was 90% or greater) | 5 (Herbicidal effect/phytotoxicity was 90% or greater) | 5 (Herbicidal effect/phytotoxicity was 90% or greater) | 5 (Herbicidal effect/phytotoxicity was 90% or greater) | 5 (Herbicidal effect/phytotoxicity was 90% or greater) |
